According to US5470714A, “One-step free fatty acid determination method” (Lidak Pharmaceuticals, priority 1993, dated 1995):
Positions count from the first letter of the chain named.

B1: Lys27 on I-FABP with danzyl aziridine: Lys27 on I-FABP with danzyl aziridine has been derivatized (conjugate, UniProt P02693 2-132, looked up)
Fatty acid-binding protein, …: AFDGTWKVDRNENYEKFMEKMGINVVKRKLGAHDNLKLTITQEGNKFTVKESSNFRNIDVVFELGVDFAYSLADGTELTGTWTMEGNKLVGKFKRVDNGKELIAVREISGNELIQTYTYEGVEAKRIFKKE
modifications: dansyl aziridine label at Lys27
notes: Lys27 on I-FABP with danzyl aziridine has been derivatized
B2: Cys27 mutant of I-FABP with acrylodan: Cys27 mutant of I-FABP (Lys27 to Cys27) with acrylodan (conjugate, UniProt P02693 2-132, looked up, variant K27C)
Fatty acid-binding protein, …: B1 Fatty acid-binding protein, … with K27C
modifications: acrylodan label
B3: Native A-FABP labeled with acrylodan: Native A-FABP which contains two cysteines, was labeled with acrylodan (conjugate, UniProt P15090 2-132, looked up)
Fatty acid-binding protein, …: CDAFVGTWKLVSSENFDDYMKEVGVGFATRKVAGMAKPNMIISVNGDVITIKSESTFKNTEISFILGQEFDEVTADDRKVKSTITLDGGVLVHVQKWDGKSTTIKRKREDDKLVVECVMKGVTSTRVYERA
modifications: acrylodan label
B4: Native A-FABP labeled with NBD: Native A-FABP labeled with the N-[7-(4-nitrobenzo-2-oxa-1,3-diazol) (NBD) moieties (conjugate, UniProt P15090 2-132, looked up)
Fatty acid-binding protein, …: B3 Fatty acid-binding protein, …
modifications: NBD label
notes: Native A-FABP labeled with the N-[7-(4-nitrobenzo-2-oxa-1,3-diazol) (NBD) moieties

How the values were obtained:
[1] = biological target: ADIFAB (Acrylodan derivatized native rat I-FABP, Lys27) (Rattus norvegicus, UniProt P02693); assay: biochemical; assay type: binding; conditions: for rank of Kd, in words: among the long chain FA of Table I
Description: In most of the studies FFA was added to ADIFAB, in a buffer (A) consisting of 10 Mm HEPES, 150 Mm NaCI, 5 mM KCI, and 1 mM NaHPO4 at pH 7.4, as the sodium salt of the fatty acid. […] FA bind to most surfaces and values of the total FA concentration ([FAT]) were corrected for FA binding to cuvette and container walls. This binding was determined using trace amounts of […] labeled FA and, separately, ADIFAB florescence to determine the degree of FA loss upon transfer from one container to another. […] To minimize FA binding to surfaces, the monomer concentrations of stock solutions of the Na salts were maintained at pH >9.0 in water, and were warmed to >37° C. just prior to use. The polyunsaturated forms of the FA are subject to oxidation and it was observed that dissociation constants for binding to ADIFAB (Kd) were considerably greater for the oxidized FA. Care was taken to reduce the exposure of the FA salts to oxygen (all handling was carried out under Argon) and to store them at -20° C.
The concentrations of FA in the aqueous phase (FFA) and FA bound to ADIFAB ([FAb ]) were determined from the ratio of fluorescence emission intensities at 432 and 505 nm (R). The values FFA and [FAb ]were related to the ratio of intensities essentially by the method of Grynkiewicz et. al. (Grynkiewicz, G., Poenie, M., & Tsien, R. Y. (1985) J. Biol. Chem. 260, 3440-3450), according to which:
[FAb ]=[ADIFABtotal ]Q(fr)/(1-fr+FRQ) FR
are the ADIFAB intensities with zero and saturating concentrations of FFA, Ro is the intensity ratio in the absence of FFA and Rmax is the value when ADIFAB is saturated.
Because of the limiting solubility of long chain FA in aqueous solution Rmax and Q cannot. in general, be determined directly. To determine Rmax and Q, ADIFAB was titrated with lauric acid (12:0) whose high CMC allowed maximum R values (~10-11) to be measured that were considerably greater than with longer chain FA. From this titration a linear correlation was found between Q and R. Using Q, R pairs predicted by this relationship, a two parameter (Kd and Rmax) least squares analysis of each FA was done using the equation for equilibrium binding;
1/[FAb ]=(Kd/[ADIFAB])/FFA+1/[ADIFAB] (3)
Optimal Q and Rmax values obtained in this analysis were in the range 17-22 and 10 and 13, respectively, with average values of 19.5 and 11.5. Final Kd values for each FA were then determined by least squares analysis of equation (3) with Q and Rmax fixed at 19.5 and 11.5, respectively.
Fluorescence measurements to monitor Acrylodan fluorescence in various solvents, to monitor adduct formation, and to obtain complete spectra were carried out using an SLM 8000C fluorometer. Measurements of the 505/432 intensity ratios (R values) used to monitor the FFA titrations of ADIFAB were done with either the SLM 8000C or a Perkin-Elmer MPF-2A fluorometer.
ADIFAB dose response to FFA and FFA aggregate formation was measured. The ratio of fluorescent intensities at emission wavelengths of 505/432 nm were measured as a function of added Na salts of several FFA. Resulting data are depicted graphically in FIGS. 6A, 6B and 6C. Conditions were similar to those used in FIG. 3 except that 100mM EGTA was used in obtaining the data depicted in FIGS. 6A and 6B, while the data depicted in FIG. 6C was obtained using 1 mM CaCl2. Measured R values were used to determine FFA and [FFAb]using equations (1) and (2). The solid curves through the data of FIGS. 6A and 6C represent best fits of equation (3) obtained using a non-linear least squares algorithm. Aggregate formation was detected by measuring 90° light scattering from FFA in the buffer of FIG. 3 containing no added calcium and titrated with the Na salts of the FFA as described above, see FIG. 6B. The smoothed curves through the data, intended to guide-the-eye, indicate that aggregate formation, as detected by a sharp increase in light scattering, is approximately coincident with the maximum R value observed in the experiment related to FIG. 6A. […]

[2] = biological target: T1, I-FABP (native, rat intestinal) (Rattus norvegicus, UniProt P02693); assay: Tryptophan fluorescence of native I-FABP on addition of FFA; assay type: binding; conditions: as much as
T1 construct: made in house; host or cells: E. coli BL21 (pET11D)
T1 sequence (P02693 1-132): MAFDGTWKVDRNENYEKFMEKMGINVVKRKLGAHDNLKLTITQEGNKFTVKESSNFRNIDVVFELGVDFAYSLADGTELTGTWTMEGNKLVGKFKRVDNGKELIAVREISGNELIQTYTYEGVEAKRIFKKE
Description: In early work, cloning was carried out using a cDNA library from neo-natal rat intestine purchased from STRATAGENE (11099 North Torrey Pines Rd., La Jolla, CA 92037). The library is carried by the LAMBDA ZAP II vector and was used with the E. coil host strain XL 1Blue which is supplied with the library. The recombinant clone was identified with an oligonucleotide probe based upon the published sequence of the I-FABP DNA (Lowe, J. B., Sacchettini, J. C., Laposata, M., McQuillan, J. J. and Gordon, J. I. J. Biol. Chem. 262:5931, 1987) and sequencing of 5and 3regions was used to verify the identity and completeness of the gene. […] The I-FABP gene was removed from the lambda Zap vector and inserted into a PET expression vector (PET11 D) purchased from Novagen and the protein was expressed using the E. coil strains (BL2 1) also from Novagen (Madison, WI, USA). I-FABP is isolated from E. coil and purified as described, Lowe, J. B., Sacchettini, J. C., Laposata, M., McQuillan, J. J. and Gordon, J. I. J. Biol. Chem. 262:5931, 1987. In this procedure cells, after a 3-hour culture, are lysed, centrifuged to remove cell debris and the pellet frozen at -70 °C. The frozen pellet was allowed to thaw in the presence of a lysing buffer composed of 50mM Tris, 0.5mM EDTA, 0.5mM PMSF, 0.1% Triton X100, at pH 8.0. This was centrifuged at 20,000 g. for 45 minutes and the pellet was discarded. The lysate was then subjected to two rounds (50% and 70%) of ammonium sulfate precipitation and the supernatant from the 70% material was desalted and concentrated using an Amicon ultrafiltration apparatus with a YM10 filter. The flitrate was then subjected to DEAE-Sephadex (A50), followed by Sephadex G-75 chromatography and the low molecular weight fractions were saved. This material gives a single band on 12% PAGE and an amino acid analysis of this material was consistent with the amino acid sequence of I-FABP. […] The addition of FFA (oleate, stearate, or palmitate) reduced the tryptophan fluorescence of the native protein by as much as 40%.

[3] = Fluorescence response of fluorescent-FABP probes to fatty acid binding; assay type: biochemical
Excerpt: Principles and exemplary methods for constructing probes as described and defined herein and methods for determining FFA levels are described in detail below. Using these principles fourteen different fluorescent-FABP derivatives have been constructed. This has been done using 3 different native FABPs (rat intestine (I-FABP), human adipocyte (A-FABP), and human heart (H-FABP)) plus 4 site-specific mutants of two of these (I-FABP, (Thr83Cys83, Thr81Cys81, Lys27Cys27 and H-FABP, Thr27Lys27), and these proteins have been derivatized with 4 different fluorophores (acrylodan, danzyl aziridine, 4-[N-[(2-iodoacetoxy)ethyl]-N-methylamino]-7-nitrobenz-2-oxa1,3-diazole ester (IANBDE), 4-[N-[(2-iodoacetoxy)ethyl]-N-methylamino]-7-nitrobenz-2-oxa-1,3-diazole these derivatives can serve as FFA probes, to some degree. To date, however, ADIFAB remains the one that has optimal properties for current applications. Obviously, by occupying, partially, the binding site with a fluorophore, FA must compete for its site and therefore the FA binding constant for the FABP may be altered from the native protein. This is indeed the case for ADIFAB for which the Kd is about 10 fold greater than for the native protein. So long as FA can bind, however, the derivatized molecule can still function as a FFA probe and so long as the probe's dynamic range is sufficient (as it is for ADIFAB, IANBDE and IANBDA) then FFA levels over a wide range, including those that are physiologic, can be measured.
The Cys27 mutant of I-FABP (Lys27 to Cys27) with acrylodan, IANBDE and IANBDA have also been labeled using the technique described. […] This is the behavior predicted from the construction principles set forth herein, and reflects the shorter tethering arm to Cys27 as compared to Lys27 which prevents the deeper insertion into the binding site that is observed in the Lys27 derivative. […] Thus, those skilled in the art can with considerable confidence predict whether protein modifications and/or choice of label will result in a FFA responsive probe.
Site-directed mutagenesis was used to introduce a cysteine residue at positions 82 or 84, in place of the threonine residues that are normally at this position. Mutagenesis was carried out by annealing a synthetic prirner with a single mismatched base to the above derived expression vector. The primer was extended and ligated in vitro, and the resulting heteroduplex was used to transfect the host strain. The transfected host was screened for the mutated DNA by hybridization with the mutating oligonucleotide. Mutated plasmid DNA was isolated, retransformed into the host strain, and its structure confirmed by sequencing the recombinant DNA in regions defined by probes flanking the mutated region. This modified protein was expressed in the same system and purified by the same methods as for the native protein. Typical yields of purified protein were approximately 50 mg/liter cell culture. The mutated I-FABP protein was fluorescently derivatized by inserting a fluorescent group (which reacts specifically with free SH groups) at the newly created cysteine residue. The cysteine residue was inserted at positions 82 (replacing a threonine residue) and/or at residue 84 (also a threonine residue) since both these positions face outward from the FFA binding pocket but are in close proximity to the tryptophan at position 83 (about 3.5Å lateral separation along the b strand and about 10Å vertical separation between the centers of the tryptophan and fluorescent residues). […] Thus, either the direct emission of the fluorescent group and/or the rate of resonance energy transfer between Trp83 and the fluorescent group was postulated to change. In a non-limiting prior specific example, the dansyl derivative ACRYLODAN®(6-acryloly-2dimethylamenonaphthalene) was used to modify the mutated FABP and this probe was designated FAD508.
ADIFAB dose response to FFA and FFA aggregate formation was measured. […]

[4] = FA-ADIFAB Dissociation Constants, Kd, no added calcium, FIG. 6A, buffer A pH 7.4

Molecule	reduction of the tryptophan fluorescence of the native protein [2] [%]	responsiveness of the probe to FA binding, in words [3]	also measured
CCCCCCCCCCCCCCCC(=O)O [PALMITATE, palmitate]	≤ 40	–	Kd [1, 4]: 320 ± 10 nM; rank of Kd, in words [1]: smallest Kds; Kd relative to oleate (fold greater than oleate) ([1]; normalized to oleate): about 1.1 fold
CCCCCCCC/C=C\CCCCCCCC(=O)O [OLEATE, oleate]	≤ 40	–	Kd [1, 4]: 280 ± 10 nM; Kd ([1]; Kd in the presence of calcium, 1 mM calcium): 310 nM; rank of Kd, in words [1]: smallest Kds
CCCCCCCCCCCCCCCCCC(=O)O [stearate]	≤ 40	–	–
B1	–	exhibits an increase in 450 nm fluorescence upon FA binding	–
B2	–	the relative change upon FA binding is smaller than for ADIFAB	–
B3	–	only poorly responsive	–
B4	–	only poorly responsive	–
